Test results reported in paper PMC10148881, “Recognition of an Ala-rich C-degron by the E3 ligase Pirh2” (Nature Communications, 2023).
Positions count from the first letter of the chain named. Read-outs that look alike come from different tables or passages of the source. Ends that are not written are not given here. Peptide text beside a SMILES is read from it.

Assays:
Pirh2 (NTD + RING) = target: T1, Pirh2 (NTD + RING) (Homo sapiens, UniProt Q96PM5); experiment: ITC of degron peptides with Pirh2 NTD + RING; type: binding
T1 construct: Pirh2 NTD + RING (residues 1–189); 8xHis-SUMO (N, cleaved yes); made in house; host or cells: E. coli BL21 (DE3)
T1 sequence (Q96PM5 1-189): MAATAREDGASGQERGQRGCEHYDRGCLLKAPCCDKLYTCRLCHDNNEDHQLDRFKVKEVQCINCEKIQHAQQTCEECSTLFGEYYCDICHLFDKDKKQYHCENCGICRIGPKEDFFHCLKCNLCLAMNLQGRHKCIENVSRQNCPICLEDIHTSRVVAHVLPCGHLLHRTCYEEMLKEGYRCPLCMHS
Excerpt: The DNA fragments corresponding to human full-length Pirh2 (residues 1–261), Pirh2 NTD + RING (residues 1–189), Pirh2 NTD (residues 1–137), Pirh2 RING + CTD (residues 138–261), Pirh2 RING (residues 138–189) and Pirh2 CTD (residues […]) were cloned by seamless cloning into the pET28-MKH8SUMO vector (Addgene Plasmid #79526), which contains an 8× His-SUMO tag followed by a Tobacco etch virus (TEV) cleavage site. The DNA fragment of Pirh2 (residues 15–191)-linker (GSGSG)-polyAla (AAAAAA) was cloned into the pGEX vector, which contains a GST tag followed by a TEV cleavage site. The recombinant plasmids were transformed into E. coli BL21 (DE3) and the expression of the target proteins was induced with 0.2 mM isopropyl β-D-1-thiogalactopyranoside (IPTG) supplemented with 100 μM ZnCl2 at 18 °C overnight. Cells were harvested by centrifugation and resuspended in lysis buffer (20 mM Tris-HCl pH 8.5, 400 mM NaCl, 5% v/v glycerol, 10 μM ZnCl2 and 2 mM β-mercaptoethanol). The cells were lysed by sonication on ice and the lysates were clarified by centrifugation at 14,000 rpm for 40 min at 4 °C. The lysate containing GST tagged Pirh2-linker-polyAla was collected to incubate with GST beads for 1 h, and nonspecifically bound proteins were washed out by lysis buffer. The GST tag was proteolytically cleaved by adding the TEV protease to the GST beads overnight at 4 °C and the TEV protease was removed by passing through the Ni‐NTA column. The other supernatants were collected to incubate with Ni-NTA beads for 1 h at 4 °C. Nonspecifically bound proteins were washed out of Ni-NTA beads by washing buffer (20 mM Tris-HCl pH 8.5, 400 mM NaCl and 25 mM imidazole pH 8.5) and the fusion proteins were eluted by elution buffer (20 mM Tris-HCl pH 8.5, 400 mM NaCl and 300 mM imidazole pH 8.5). The SUMO tag was cleaved by TEV protease with a molar ration of 1: 20 in dialysis buffer (20 mM Tris-HCl pH 8.5 and 300 mM NaCl) at 4 °C overnight. The samples were reloaded onto the Ni-NTA column to remove the cleaved SUMO tag and TEV protease. Finally, all of the acquired proteins were further purified by size exclusion chromatography (Superdex 200 Increase 10/300 GL, GE healthcare), which was pre-equilibrated with gel-filtration buffer (20 mM Tris-HCl pH 7.5, 150 mM NaCl, 10 μM ZnCl2 and 1 mM DTT). Purified proteins were concentrated and stored at −80 °C for later use. Expression and purification of the mutants were performed in the same way as wild-type proteins.
Isothermal titration calorimetry (ITC) measurements were performed at 16 °C using a MicroCal PEAQ-ITC instrument (Malvern Panalytical). Proteins and peptides were prepared in an ITC buffer (20 mM Tris-HCl pH 7.5, 150 mM NaCl and 10 μM Zn^2+). ITC experiments were performed by titrating 1.5 μL (with the exception of the first injection of 0.5 μL) of peptides (0.6–1.0 mM) into cell containing 180–220 μM proteins, with a spacing time of 90 s and a reference power of 10 μcal s^−1. The titration data were analyzed using the one-site binding model from MicroCal PEAQ-ITC Analysis Software version 1.30. All ITC assays were repeated at least three times independently with similar results.

full-length Pirh2 = target: T2, full-length Pirh2 (Homo sapiens, UniProt Q96PM5); experiment: ITC of degron peptide with full-length Pirh2; details: 16 °C, 20 mM Tris-HCl pH 7.5, 150 mM NaCl, 10 μM Zn2+, one-site binding model, repeated at least three times
T2 construct: human full-length Pirh2 (residues 1–261); 8xHis-SUMO (N, cleaved yes); made in house; host or cells: E. coli BL21 (DE3)
T2 sequence (Q96PM5 1-261): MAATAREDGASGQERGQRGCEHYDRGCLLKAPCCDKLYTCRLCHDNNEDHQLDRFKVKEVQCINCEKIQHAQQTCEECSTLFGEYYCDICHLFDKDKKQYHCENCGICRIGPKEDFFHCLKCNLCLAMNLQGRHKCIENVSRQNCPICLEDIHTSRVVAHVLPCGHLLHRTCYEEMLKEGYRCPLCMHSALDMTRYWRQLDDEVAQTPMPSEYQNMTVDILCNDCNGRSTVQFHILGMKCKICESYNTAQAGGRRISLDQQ
Excerpt: (§1) The DNA fragments corresponding to human full-length Pirh2 (residues 1–261), Pirh2 NTD + RING (residues 1–189), Pirh2 NTD (residues 1–137), Pirh2 RING + CTD (residues 138–261), Pirh2 RING (residues 138–189) and Pirh2 CTD (residues 187–261) were cloned by seamless cloning into the pET28-MKH8SUMO vector (Addgene Plasmid #79526), which contains an 8× His-SUMO tag followed by a Tobacco etch virus (TEV) cleavage site. The DNA fragment of Pirh2 (residues 15–191)-linker (GSGSG)-polyAla (AAAAAA) was cloned into the pGEX vector, which contains a GST tag followed by a TEV cleavage site. The recombinant plasmids were transformed into E. coli BL21 (DE3) and the expression of the target proteins was induced with 0.2 mM isopropyl β-D-1-thiogalactopyranoside (IPTG) supplemented with 100 μM ZnCl2 at 18 °C overnight. Cells were harvested by centrifugation and resuspended in lysis buffer (20 mM Tris-HCl pH 8.5, 400 mM NaCl, 5% v/v glycerol, 10 μM ZnCl2 and 2 mM β-mercaptoethanol). The cells were lysed by sonication on ice and the lysates were clarified by centrifugation at 14,000 rpm for 40 min at 4 °C. […]
(§2) Isothermal titration calorimetry (ITC) measurements were performed at 16 °C using a MicroCal PEAQ-ITC instrument (Malvern Panalytical). […] The titration data were analyzed using the one-site binding model from MicroCal PEAQ-ITC Analysis Software version 1.30. […]

Pirh2 NTD = target: T3, Pirh2 NTD (Homo sapiens, UniProt Q96PM5); experiment: ITC of degron peptide with Pirh2 NTD; details: 16 °C, 20 mM Tris-HCl pH 7.5, 150 mM NaCl, 10 μM Zn2+, one-site binding model, repeated at least three times
T3 construct: Pirh2 NTD (residues 1–137); 8xHis-SUMO (N, cleaved yes); made in house; host or cells: E. coli BL21 (DE3)
T3 sequence (Q96PM5 1-137): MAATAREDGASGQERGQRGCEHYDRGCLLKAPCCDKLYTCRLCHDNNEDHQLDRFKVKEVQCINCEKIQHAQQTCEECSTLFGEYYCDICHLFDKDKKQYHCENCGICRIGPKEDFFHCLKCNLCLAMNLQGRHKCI
Excerpt: as §1, §2

Pirh2 R54A = target: T4, Pirh2 R54A (Homo sapiens, UniProt Q96PM5, R54A); experiment: ITC of Ala6/C-degron peptide with mutant Pirh2 R54A; type: binding; details: Fig. 4a
T4 construct: Pirh2 NTD + RING (residues 1–189); 8xHis-SUMO (N, cleaved yes); made in house; host or cells: E. coli BL21 (DE3)
T4 sequence (Q96PM5 1-189 R54A): T1 sequence (Q96PM5 1-189) with R54A
Excerpt: as §1, §2

Pirh2 D94A = target: T5, Pirh2 D94A (Homo sapiens, UniProt Q96PM5, D94A); experiment: ITC of Ala6/C-degron peptide with mutant Pirh2 D94A; type: binding; details: Fig. 4a
T5 construct: Pirh2 NTD + RING (residues 1–189); 8xHis-SUMO (N, cleaved yes); made in house; host or cells: E. coli BL21 (DE3)
T5 sequence (Q96PM5 1-189 D94A): T1 sequence (Q96PM5 1-189) with D94A
Excerpt: as §1, §2

Pirh2 I107D = target: T6, Pirh2 I107D (Homo sapiens, UniProt Q96PM5, I107D); experiment: ITC of Ala6/C-degron peptide with mutant Pirh2 I107D; type: binding; details: Fig. 4a
T6 construct: Pirh2 NTD + RING (residues 1–189); 8xHis-SUMO (N, cleaved yes); made in house; host or cells: E. coli BL21 (DE3)
T6 sequence (Q96PM5 1-189 I107D): T1 sequence (Q96PM5 1-189) with I107D
Excerpt: as §1, §2

Pirh2 S155D = target: T7, Pirh2 S155D (Homo sapiens, UniProt Q96PM5, S155D); experiment: ITC of Ala6/C-degron peptide with mutant Pirh2 S155D; type: binding; details: Fig. 4a
T7 construct: Pirh2 NTD + RING (residues 1–189); 8xHis-SUMO (N, cleaved yes); made in house; host or cells: E. coli BL21 (DE3)
T7 sequence (Q96PM5 1-189 S155D): T1 sequence (Q96PM5 1-189) with S155D
Excerpt: as §1, §2

[1] = ITC, 16 °C, 20 mM Tris-HCl pH 7.5, 150 mM NaCl, 10 μM Zn2+, one-site binding model, repeated at least three times, NB = no detectable binding under our experimental conditions, read-out: KD

Row | Compound | Kd (Pirh2 (NTD + RING); [1]) [µM] | also measured
1 | YKTSAAIA | 13 | 
2 | C[C@H](N)C(=O)N[C@@H](C)C(=O)N[C@@H](C)C(=O)N[C@@H](C)C(=O)N[C@@H](C)C(=O)N[C@@H](C)C(=O)O [AAAAAA] | 0.9 | 
3 | YKTSATAAAA | 0.5 | 
4 | C[C@H](N)C(=O)N[C@@H](C)C(=O)N[C@@H](C)C(=O)O [AAA] | > 100 | 
5 | YKTSASAA | 3 | 
6 | YKTSAPAA | 0.9 | 
7 | YKTSALAA | 2.8 | 
8 | YKTSAKAA | 5.5 | 
9 | YKTSAAAAAA [Ala6/C-degron] | 0.5 | Kd (full-length Pirh2): 0.9 µM; Kd (Pirh2 NTD): 5.5 µM; Kd (Pirh2 R54A): > 100 µM; Kd (Pirh2 D94A): 3 µM; Kd (Pirh2 I107D): 9.1 µM; Kd (Pirh2 S155D): 4.5 µM
10 | YKTSTAAAAA |  | Kd (Pirh2 (NTD + RING)): 0.5 µM
11 | C[C@H](N)C(=O)N[C@@H](C)C(=O)N[C@@H](C)C(=O)N[C@@H](C)C(=O)O [AAAA] (H-AAAA-OH) | 7.4 | 
12 | YKTSAAVA | 13 | 
13 | YKTSSAAA | 4.5 | 
14 | C[C@H](N)C(=O)N[C@@H](C)C(=O)N[C@@H](C)C(=O)N[C@@H](C)C(=O)N[C@@H](C)C(=O)O [AAAAA] | 2.5 | 
